According to patent publication US9353116B2, “Methods and compositions for kinase inhibition” (THE REGENTS OF THE UNIVERSITY OF CALIFORNIA, priority 2010, dated 2016):
Where two headings read alike, the source gives them in different places.

Columns and labels:
Assay type in all cases: biochemical
WT c-Src [1] = molecular target: T1, WT c-Src (Gallus gallus (Chicken), UniProt P00523); assay: In vitro kinase assay, WT c-Src
Protocol: (§1) In vitro kinase assays for c-Src variants were performed in 50 mM Tris (pH 8.0), 10 mM MgCl2 and 1 mg/mL BSA. When obtaining kinetic parameters (kcat, Km) kinase and peptide substrate (IYGEFKKK) (SEQ ID NO:51) concentrations were 2 nM and 500 μM, respectively, while ATP concentrations ranged from 2000-0.655 μM. Addition of nonradioactive ATP supplemented with ^32P ATP (3,000 Ci/mmol, NEN) was used to initiate kinase reactions. Time points were selected such that product formation never exceeded 10%. Reactions were quenched by spotting 3 μL quantities onto phosphocellulose sheets (P81, Whatman). Afterwards, the sheets were washed 3×5 minutes in 0.5% phosphoric acid and dried. Radioactivity was measured by phosphorimaging and recorded on a Typhoon fluorescence imager (Molecular Dynamics). Data were plotted as rate (min^−1) versus ATP concentration and fitted to the Michaelis-Menten equation, v=[(kcat)[S]]/(Km+[S]), using Kaleidagraph software (Synergy) to extract kinetic parameters. When obtaining IC50 values for the inhibitors, 2% (v/v) DMSO was included in kinase reactions. In these cases ATP, peptide, and enzyme concentrations were 15 nM, 100 μM and 5 nM, respectively, while inhibitor concentrations ranged from 10,000-0.610 nM. In all cases, a ten-minute preincubation step between the kinase and the inhibitor preceded addition of ATP and a fifteen-minute reaction. The data was fitted to a sigmoidal dose-response curve using Prism 4.0c (GraphPad Software) to obtain IC50 values.

T338C c-Src [2] = molecular target: T2, T338C c-Src (Gallus gallus (Chicken), UniProt P00523, T338C); assay: In vitro kinase assay, T338C c-Src (c-Src-ES1); conditions: for fold increase in inhibition of T338C relative to WT c-Src: T338C vs WT c-Src; for fold drop in potency against T338C c-Src relative to compound 9: relative to isopropyl vinylsulfonamide 9
Protocol: as §1, with “In all cases, a ten-minute preincubation step between the kinase and the inhibitor preceded addition of ATP and a fifteen-minute reaction.” left out

c-Src-ES2 (T338C/V323A) = c-Src-ES2 (T338C/V323A) (Gallus gallus (Chicken), UniProt P00523, T338C/V323A); assay: In vitro kinase assay, c-Src-ES2
Protocol: as §1

c-Src-ES3 (T338C/V323S) = c-Src-ES3 (T338C/V323S) (Gallus gallus (Chicken), UniProt P00523, T338C/V323S); assay: In vitro kinase assay, c-Src-ES3; conditions: ES3 = T338C/V323S; read-out: c-Src variant IC50 (nM) ES3
Protocol: as §1

307 kinases = assay: Kinome-wide profiling (SelectScreen Kinase Profiling Service); conditions: compounds at 1 μM, ATP at Km,app
Protocol: The percent inhibition results in FIG. were generated with biochemical enzymatic kinase assays using the SelectScreen® Kinase Profiling Service (Life Technologies Corporation, Madison, Wis.). Compounds were assayed at 1 μM at an ATP concentration equal to the ATP Km,app for the assay following the detailed procedures described in the SelectScreen® Customer Protocol and Assay Conditions documents located at www.invitrogen.com/kinaseprofiling.
Compounds that were profiled include, but are not limited to, 3, 4, 9, 13, and 20. […] The exocyclic amine mimics N6 of ATP and plays an important role in a hydrogen bonding interaction with the hinge region of kinases.

T338C c-Src [3] = molecular target: T2, T338C c-Src; assay: Gel filtration and kinetic assay, T338C c-Src; conditions: 23 μM inhibitor, 25 minutes, then PD10 desalting
Protocol: (§2) Inhibitors (final concentration 23 μM) were incubated with c-Src variants (final concentration 11.5 μM) in kinase reaction buffer (50 mM Tris pH 8, 100 mM NaCl, 1 mM DTT, 5% glycerol, 5% DMSO) for 25 minutes at room temperature. The solutions (2.6 mL total) were then passed over PD10 desalting columns (GE Healthcare) using the kinase reaction buffer for elution. Src concentrations were calculated using the extinction coefficient for c-Src (51.140 mM^−1cm^−1) {Seeliger, 2005 #100}. Kinase assays were performed as described in the experimental section at a final enzyme concentration of 10 nM.

WT c-Src [4] = molecular target: T1, WT c-Src; assay: Gel filtration and kinetic assay, WT c-Src; conditions: 23 μM inhibitor, 25 minutes, then PD10 desalting
Protocol: as §2

[5] = inhibitor preincubated with Src ten minutes prior to addition of ATP, read-out: WT c-Src IC50
[6] = inhibitor preincubated with Src ten minutes prior to addition of ATP, read-out: T338C c-Src IC50
[7] = 10 min preincubation with inhibitor prior to addition of ATP, read-out: IC50 against WT c-Src
[8] = 10 min preincubation with inhibitor prior to addition of ATP, read-out: IC50 against T338C c-Src

C=CC(=O)Nc1cccc(-c2nn(C(C)C)c3ncnc(N)c23)c1 [Compound 1, N-(3-(4-amino-1-isopropyl-1H-pyrazolo[3,4-d]pyrimidin-3-yl)phenyl)acrylamide]
IC50 (WT c-Src [1]; [5]): 2.32 µM | IC50 (T338C c-Src [2]; [6]): 419 nM

C=CC(=O)Nc1cccc(-c2nn(C(C)C)c3ncncc23)c1 [Compound 2, N-(3-(1-isopropyl-1H-pyrazolo[3,4-d]pyrimidin-3-yl)phenyl)acrylamide]
IC50 (WT c-Src [1]; [7]): ≥ 5 µM | IC50 (WT c-Src [1]; [5]): > 5 µM | IC50 (T338C c-Src [2]; [8]): ≥ 5000 nM | IC50 (T338C c-Src [2]; [6]): > 5000 nM

C=CS(=O)(=O)Nc1cccc(-c2nn(C(C)C)c3ncnc(N)c23)c1 [Compound 3, N-(3-(4-amino-1-isopropyl-1H-pyrazolo[3,4-d]pyrimidin-3-yl)phenyl)ethenesulfonamide]
IC50 (WT c-Src [1]; [5]): 1 µM | IC50 (T338C c-Src [2]; ES1 = T338C, read-out: c-Src variant IC50 (nM) ES1): 111 nM | fold increase in inhibition of T338C relative to WT c-Src (T338C c-Src [2]): > 9 fold | IC50 (T338C c-Src [2]; [6]): 111 nM | IC50 (c-Src-ES2 (T338C/V323A); ES2 = T338C/V323A, read-out: c-Src variant IC50 (nM) ES2): 63 nM | change of inhibitor potency upon second-site Val323 mutations (c-Src-ES2 (T338C/V323A); c-Src-ES2 and c-Src-ES3 relative to c-Src-ES1): not modulated appreciably | IC50 (c-Src-ES3 (T338C/V323S)): 131 nM

C=CS(=O)(=O)Nc1cccc(-c2nn(C(C)C)c3ncncc23)c1 [Compound 4, N-(3-(1-isopropyl-1H-pyrazolo[3,4-d]pyrimidin-3-yl)phenyl)ethenesulfonamide]
IC50 (WT c-Src [1]; [7]): ≥ 5 µM | IC50 (WT c-Src [1]; [5]): > 5 µM | IC50 (T338C c-Src [2]; [8]): ≥ 5000 nM | IC50 (T338C c-Src [2]; [6]): > 5000 nM | off-target profile in kinome-wide screen (307 kinases): relatively few off-target effects

C=CS(=O)(=O)Nc1ccc(-c2nn(C(C)C)c3ncnc(N)c23)cc1 [Compound 5, N-(4-(4-amino-1-isopropyl-1H-pyrazolo[3,4-d]pyrimidin-3-yl)phenyl)ethenesulfonamide]
IC50 (WT c-Src [1]; [5]): 0.899 µM | fold increase in inhibition of T338C relative to WT c-Src (T338C c-Src [2]): ~6 fold | IC50 (T338C c-Src [2]; [6]): 145 nM

CC(C)n1nc(-c2cccc(NC(=O)CCl)c2)c2c(N)ncnc21 [Compound 6, N-(3-(4-amino-1-isopropyl-1H-pyrazolo[3,4-d]pyrimidin-3-yl)phenyl)-2-chloroacetamide]
IC50 (WT c-Src [1]; [5]): > 5 µM | IC50 (T338C c-Src [2]; [6]): 817 nM

C=CC(=O)Nc1cccc(Cc2nn(C(C)C)c3ncnc(N)c23)c1 [Compound 7, N-(3-((4-amino-1-isopropyl-1H-pyrazolo[3,4-d]pyrimidin-3-yl)methyl)phenyl)acrylamide]
IC50 (WT c-Src [1]; [5]): > 5 µM | IC50 (T338C c-Src [2]; [6]): 2760 nM

C=CC(=O)Nc1ccc(Cc2nn(C(C)C)c3ncnc(N)c23)cc1 [Compound 8, N-(4-((4-amino-1-isopropyl-1H-pyrazolo[3,4-d]pyrimidin-3-yl)methyl)phenyl)acrylamide]
IC50 (WT c-Src [1]; [5]): > 5 µM | IC50 (T338C c-Src [2]; [6]): > 5000 nM

C=CS(=O)(=O)Nc1ccc(Cc2nn(C(C)C)c3ncnc(N)c23)cc1 [Compound 10, N-(4-((4-amino-1-isopropyl-1H-pyrazolo[3,4-d]pyrimidin-3-yl)methyl)phenyl)ethenesulfonamide]
IC50 (WT c-Src [1]; [5]): 3.08 µM | IC50 (T338C c-Src [2]; [6]): 1760 nM

CCS(=O)(=O)Nc1cccc(Cc2nn(C(C)C)c3ncnc(N)c23)c1 [Compound 11, N-(3-((4-amino-1-isopropyl-1H-pyrazolo[3,4-d]pyrimidin-3-yl)methyl)phenyl)ethanesulfonamide]
IC50 (WT c-Src [1]; [5]): > 5 µM | IC50 (T338C c-Src [2]; [6]): 3500 nM | fold drop in potency against T338C c-Src relative to compound 9 (T338C c-Src [2]): 23 fold

CC(C)n1nc(Cc2cccc(NC(=O)CCl)c2)c2c(N)ncnc21 [Compound 12, N-(3-((4-amino-1-isopropyl-1H-pyrazolo[3,4-d]pyrimidin-3-yl)methyl)phenyl)-2-chloroacetamide]
IC50 (WT c-Src [1]; [5]): > 5 µM | IC50 (T338C c-Src [2]; [6]): > 5000 nM

C=CS(=O)(=O)Nc1cccc(Cc2nn(C)c3ncnc(N)c23)c1 [Compound 15, N-(3-((4-amino-1-methyl-1H-pyrazolo[3,4-d]pyrimidin-3-yl)methyl)phenyl)ethenesulfonamide]
IC50 (WT c-Src [1]; [5]): > 5 µM | IC50 (T338C c-Src [2]; [6]): 3160 nM | fold drop in potency against T338C c-Src relative to compound 9 (T338C c-Src [2]): 21 fold

C=CS(=O)(=O)Nc1cccc(Cc2nn(C(C)(C)C)c3ncnc(N)c23)c1 [Compound 16, N-(3-((4-amino-1-tert-butyl-1H-pyrazolo[3,4-d]pyrimidin-3-yl)methyl)phenyl)ethenesulfonamide]
IC50 (WT c-Src [1]; [5]): > 5 µM | IC50 (T338C c-Src [2]; [6]): 618 nM | fold drop in potency against T338C c-Src relative to compound 9 (T338C c-Src [2]): 4 fold

C=CS(=O)(=O)Nc1cccc(Cc2nn(C3CCCC3)c3ncnc(N)c23)c1 [Compound 17, N-(3-((4-amino-1-cyclopentyl-1H-pyrazolo[3,4-d]pyrimidin-3-yl)methyl)phenyl)ethenesulfonamide]
IC50 (WT c-Src [1]; [5]): > 5 µM | IC50 (T338C c-Src [2]; [6]): 196 nM

C=CC(=O)Nc1cccc(Nc2ncnc3cc(OC)c(OC)cc23)c1 [Compound 18, N-(3-(6,7-dimethoxyquinazolin-4-ylamino)phenyl)acrylamide]
IC50 (WT c-Src [1]; [5]): > 5 µM | IC50 (T338C c-Src [2]; [6]): 1660 nM

Cc1ccc(-c2nn(C(C)(C)C)c3ncnc(N)c23)cc1 [PP1, reference compound]
inhibitory activity after gel filtration, T338C c-Src (T338C c-Src [3]): abrogated | inhibitory activity after gel filtration, WT c-Src (WT c-Src [4]): abrogated
